A word on the melting point: it is the temperature, or range, at which the solid turns liquid.

The text below walks through data of patent publication US6800590B2, “2-Pyrimidinyloxy-n-aryl-benzylamine derivatives,their processes and uses” (Shanghai Institute of Organic Chemistry, priority 2003, dated 2004).

The subject of series [1] is transplanted paddy seedlings. The series can be described thus: Paddy safety, treatment on stem and leaves of transplanted paddy seedlings. The series is classed as in vivo. Conditions: 150 g ai/ha, spray on stem and leaves of transplanted paddy seedlings at 4-5-leaves stage. The method, then: The 5-grade evaluation criteria by visual examination for weeding activity and crop safety (i.e. phytotoxicity) are listed in Table 2.
In pots (diameter of 12 cm) containing test soil, paddy seedlings of the given stage are transplanted and grown in the greenhouse at 20-30° C. After growing to 4-5-leaves stage, the spraying treatment on the stem and leaves of paddy seedlings is conducted in a dosage of 150 g ai/ha after diluting the formulation obtained according to Formulating Example 5 into a given concentration. The visual injury and growth state of the individual plants are observed in regular intervals. The evaluation for the crop safety of the compounds is conducted by 5-grade visual observation.

In turn, `COc1cc(OC)nc(Oc2ccccc2CNc2ccc(C(=O)NC(C)C)cc2)n1` [Compound I-79, i-propyl 4-[2-(4,6-dimethoxy-2-pyrimidinyloxy)-benzylamino]benzamide] had a melting point of 83 to 84 °C.
As for `COc1cc(OC)nc(Oc2ccccc2CNc2ccc(NC(=O)C(F)(F)F)cc2)n1` [Compound I-103], in series [1], the Effect on tillering entry is given as “None” and the Stunting was 20-25%.
Regarding `COc1cc(OC)nc(Oc2ccccc2CNc2ccc(NC(=O)c3ccccc3)cc2)n1` [Compound I-102], in series [1], the Effect on tillering result is on record as “None” and the Stunting is recorded as 10-15%.
On to `CCCNC(=O)c1ccc(NCc2ccccc2Oc2nc(OC)cc(OC)n2)cc1` [Compound I-78, n-propyl 4-[2-(4,6-dimethoxy-2-pyrimidinyloxy)-benzylamino]-benzamide], for which the melting point lay in the range of 96 to 97 °C.
In the case of `COc1cc(OC)nc(Oc2ccccc2CNc2ccc(NC(=O)C(C)C)cc2)n1` [Compound I-101], in series [1], the Effect on tillering result is “None” and the Stunting was less than 10%.
